According to PubChem BioAssay AID1963871 (Molecular Pharmacology Branch, DTP, NCI, 2024):

Test system: KRAS-mutant PDC multicell tumor spheroid viability
Experiment: Anticancer human tumor 521955-158-R2-J5-PDC patient-derived pancreatic carcinoma cell line growth inhibition [KRAS2]
Settings: for viability, T/C: stronger effect = lower value; active = viability on the fitted dose curve at most 10% of control; inactive = the rest
Procedure, shortened: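 Combination screen of spheroid viability in tumor-cell co-cultures with endothelial (HUVEC) and mesenchymal stem cell stroma. Each agent was tested in half-log dilutions, topping at clinical Cmax or at 10 microM without a known Cmax.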

[1] = curve of first compound, second compound 0.1 µM
[2] = curve of first compound, second compound 0.316 µM
[3] = curve of first compound, second compound 1 µM
[4] = curve of first compound, second compound 3.16 µM
[5] = curve of first compound, second compound 10 µM
[6] = second compound 0.1 µM, first compound 0.000316 µM
[7] = second compound 0.1 µM, first compound 0.001 µM
[8] = second compound 0.1 µM, first compound 0.00316 µM
[9] = second compound 0.1 µM, first compound 0.01 µM
[10] = second compound 0.1 µM, first compound 0.0316 µM
[11] = second compound 0.1 µM, first compound 0.1 µM
[12] = second compound 0.316 µM, first compound 0.000316 µM
[13] = second compound 0.316 µM, first compound 0.001 µM
[14] = second compound 0.316 µM, first compound 0.00316 µM
[15] = second compound 0.316 µM, first compound 0.01 µM
[16] = second compound 0.316 µM, first compound 0.0316 µM
[17] = second compound 0.316 µM, first compound 0.1 µM
[18] = second compound 1 µM, first compound 0.000316 µM
[19] = second compound 1 µM, first compound 0.001 µM
[20] = second compound 1 µM, first compound 0.00316 µM
[21] = second compound 1 µM, first compound 0.01 µM
[22] = second compound 1 µM, first compound 0.0316 µM
[23] = second compound 1 µM, first compound 0.1 µM
[24] = second compound 3.16 µM, first compound 0.000316 µM
[25] = second compound 3.16 µM, first compound 0.001 µM
[26] = second compound 3.16 µM, first compound 0.00316 µM
[27] = second compound 3.16 µM, first compound 0.01 µM
[28] = second compound 3.16 µM, first compound 0.0316 µM
[29] = second compound 3.16 µM, first compound 0.1 µM
[30] = second compound 10 µM, first compound 0.000316 µM
[31] = second compound 10 µM, first compound 0.001 µM
[32] = second compound 10 µM, first compound 0.00316 µM
[33] = second compound 10 µM, first compound 0.01 µM
[34] = second compound 10 µM, first compound 0.0316 µM
[35] = second compound 10 µM, first compound 0.1 µM
[36] = second compound 0.1 µM, first compound 0.316 µM
[37] = second compound 0.1 µM, first compound 1 µM
[38] = second compound 0.1 µM, first compound 3.16 µM
[39] = second compound 0.1 µM, first compound 10 µM
[40] = second compound 0.316 µM, first compound 0.316 µM
[41] = second compound 0.316 µM, first compound 1 µM
[42] = second compound 0.316 µM, first compound 3.16 µM
[43] = second compound 0.316 µM, first compound 10 µM
[44] = second compound 1 µM, first compound 0.316 µM
[45] = second compound 1 µM, first compound 1 µM
[46] = second compound 1 µM, first compound 3.16 µM
[47] = second compound 1 µM, first compound 10 µM
[48] = second compound 3.16 µM, first compound 0.316 µM
[49] = second compound 3.16 µM, first compound 1 µM
[50] = second compound 3.16 µM, first compound 3.16 µM
[51] = second compound 3.16 µM, first compound 10 µM
[52] = second compound 10 µM, first compound 0.316 µM
[53] = second compound 10 µM, first compound 1 µM
[54] = second compound 10 µM, first compound 3.16 µM
[55] = second compound 10 µM, first compound 10 µM
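Also: viability read after seven days of drug exposure.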

Cn1ncnc1[C@H]1c2n[nH]c(=O)c3cc(F)cc(c23)N[C@@H]1c1ccc(F)cc1 + COc1cc2nc(C)nc(NC(C)c3cc(N)cc(C(F)(F)F)c3)c2cc1OC1CCOC1
> 100 nM: IC50 [1] | IC50 [2] | IC50 [3] | IC50 [4] | IC50 [5]
inactive: viability, T/C [6] 80.6% | viability, T/C [7] 78.6% | viability, T/C [8] 85.2% | viability, T/C [9] 67.1% | viability, T/C [10] 70.3% | viability, T/C [11] 66.2% | viability, T/C [12] 81.2% | viability, T/C [13] 90.5% | viability, T/C [14] 85.3% | viability, T/C [15] 63.2% | viability, T/C [16] 67.4% | viability, T/C [17] 65.2% | viability, T/C [18] 86% | viability, T/C [19] 88.1% | viability, T/C [20] 84% | viability, T/C [21] 75.1% | viability, T/C [22] 69.3% | viability, T/C [23] 71.1% | viability, T/C [24] 94.2% | viability, T/C [25] 94.6% | viability, T/C [26] 88.7% | viability, T/C [27] 81.2% | viability, T/C [28] 77.8% | viability, T/C [29] 70.3% | viability, T/C [30] 84.7% | viability, T/C [31] 70.5% | viability, T/C [32] 75.3% | viability, T/C [33] 67.9% | viability, T/C [34] 57.6% | viability, T/C [35] 55%

COc1cc(Nc2ncc3c(n2)-c2ccc(Cl)cc2C(c2c(F)cccc2OC)=NC3)ccc1C(=O)O + CNCc1ccccc1-c1csc(C(C)Nc2nc(C)nc3cc(OC)c(OC)cc23)c1
< 31.6 nM: IC50 [2] | IC50 [3] | IC50 [4] | IC50 [5]
active: viability, T/C [28] 0.73% | viability, T/C [29] 0.13% | viability, T/C [48] 1.25% | viability, T/C [49] 1.11% | viability, T/C [50] 0.12% | viability, T/C [51] 1.59% | viability, T/C [34] 0.28% | viability, T/C [35] 0.29% | viability, T/C [52] 0.26% | viability, T/C [53] 0.51% | viability, T/C [54] 1.28% | viability, T/C [55] 0.37%
75.6 nM: IC50 [1]
inactive: viability, T/C [10] 57.5% | viability, T/C [11] 48.2% | viability, T/C [36] 43.6% | viability, T/C [37] 48.2% | viability, T/C [38] 49.2% | viability, T/C [39] 43.6% | viability, T/C [16] 48.4% | viability, T/C [17] 45.4% | viability, T/C [40] 51.4% | viability, T/C [41] 46% | viability, T/C [42] 47.6% | viability, T/C [43] 39.8% | viability, T/C [22] 39.7% | viability, T/C [23] 31.4% | viability, T/C [44] 34.5% | viability, T/C [45] 28.4% | viability, T/C [46] 35.2% | viability, T/C [47] 40.9%

O=C(c1cc(Cc2n[nH]c(=O)c3ccccc23)ccc1F)N1CCN(C(=O)C2CC2)CC1 + CNCc1ccccc1-c1csc(C(C)Nc2nc(C)nc3cc(OC)c(OC)cc23)c1
active: viability, T/C [28] 0.34% | viability, T/C [29] 0.17% | viability, T/C [48] 0.17% | viability, T/C [49] 0.65% | viability, T/C [50] 0.18% | viability, T/C [51] 0.2% | viability, T/C [34] 0.16% | viability, T/C [35] 0.14% | viability, T/C [52] 0.16% | viability, T/C [53] 0.16% | viability, T/C [54] 0.18% | viability, T/C [55] 0.23%
inactive: viability, T/C [10] 93.9% | viability, T/C [11] 106% | viability, T/C [36] 91% | viability, T/C [37] 88.3% | viability, T/C [38] 72.7% | viability, T/C [39] 55.7% | viability, T/C [16] 86.7% | viability, T/C [17] 100% | viability, T/C [40] 94.5% | viability, T/C [41] 88.8% | viability, T/C [42] 72.1% | viability, T/C [43] 54.3% | viability, T/C [22] 92.3% | viability, T/C [23] 98.1% | viability, T/C [44] 99.6% | viability, T/C [45] 94.5% | viability, T/C [46] 70.7% | viability, T/C [47] 51.9%
< 31.6 nM: IC50 [4] | IC50 [5]
> 10000 nM: IC50 [1] | IC50 [2] | IC50 [3]

CCNC(=O)CC1N=C(c2ccc(Cl)cc2)c2cc(OC)ccc2-n2c(C)nnc21 (stereo not drawn) + C=CC(=O)N1CCN(c2nc(OCC3CCCN3C)nc3c2CCN(c2cccc4cccc(C)c24)C3)CC1CC#N
340 nM: IC50 [1]
active: viability, T/C [51] 11.2%
inactive: viability, T/C (second compound 0.0316 µM, first compound 0.0316 µM) 106% | viability, T/C (second compound 0.0316 µM, first compound 0.1 µM) 94.9% | viability, T/C (second compound 0.0316 µM, first compound 0.316 µM) 52.9% | viability, T/C (second compound 0.0316 µM, first compound 1 µM) 38% | viability, T/C (second compound 0.0316 µM, first compound 3.16 µM) 32.4% | viability, T/C (second compound 0.0316 µM, first compound 10 µM) 34.2% | viability, T/C [10] 96.3% | viability, T/C [11] 79.4% | viability, T/C [36] 50.7% | viability, T/C [37] 36% | viability, T/C [38] 34.3% | viability, T/C [39] 30.1% | viability, T/C [16] 103% | viability, T/C [17] 97.6% | viability, T/C [40] 47.8% | viability, T/C [41] 35.2% | viability, T/C [42] 31.6% | viability, T/C [43] 32.7% | viability, T/C [22] 84.3% | viability, T/C [23] 77% | viability, T/C [44] 48.1% | viability, T/C [45] 30.1% | viability, T/C [46] 28.1% | viability, T/C [47] 29.4% | viability, T/C [28] 29.8% | viability, T/C [29] 22% | viability, T/C [48] 22.2% | viability, T/C [49] 0.29% | viability, T/C [50] 14.3%
395 nM: IC50 (curve of first compound, second compound 0.0316 µM)
302 nM: IC50 [2]
291 nM: IC50 [3]
< 31.6 nM: IC50 [4]

CN(C)C/C=C/C(=O)Nc1cc2c(Nc3ccc(F)c(Cl)c3)ncnc2cc1O[C@H]1CCOC1 + C=CC(=O)N1CCN(c2nc(=O)n(-c3c(C)ccnc3C(C)C)c3nc(-c4c(O)cccc4F)c(F)cc23)C(C)C1
inactive: viability, T/C [6] 124% | viability, T/C [7] 118% | viability, T/C [8] 93.8% | viability, T/C [9] 97.2% | viability, T/C [10] 98.6% | viability, T/C [11] 80.5% | viability, T/C [12] 133% | viability, T/C [13] 134% | viability, T/C [14] 103% | viability, T/C [15] 88.5% | viability, T/C [16] 90.6% | viability, T/C [17] 76.7% | viability, T/C [18] 120% | viability, T/C [19] 120% | viability, T/C [20] 99.8% | viability, T/C [21] 84.9% | viability, T/C [22] 85.2% | viability, T/C [23] 71% | viability, T/C [24] 99.4% | viability, T/C [25] 104% | viability, T/C [26] 89.5% | viability, T/C [27] 77% | viability, T/C [28] 59.4% | viability, T/C [29] 69.2% | viability, T/C [30] 67.4% | viability, T/C [31] 72.4% | viability, T/C [32] 55.7% | viability, T/C [33] 57.5% | viability, T/C [34] 51.9% | viability, T/C [35] 49.7%
75.8 nM: IC50 [5]
> 100 nM: IC50 [1] | IC50 [2] | IC50 [3] | IC50 [4]

CC1COCCN1c1cc(-c2ccnn2C)c2ccnc(-c3ccn[nH]3)c2n1 (stereo not drawn)
inactive: viability, T/C (compound 0.01 µM) 97.7% [middle of 5 runs] | viability, T/C (compound 0.1 µM) 12.3% [middle of 5 runs] | viability, T/C (compound 0.316 µM) 13.6% [middle of 5 runs] | viability, T/C (compound 1 µM) 21.9% [middle of 5 runs] | viability, T/C (compound 3.16 µM) 25.1% [middle of 5 runs]
34.4 nM [middle of 5 runs]: IC50 (curve of compound)

CCNC(=O)CC1N=C(c2ccc(Cl)cc2)c2cc(OC)ccc2-n2c(C)nnc21 (stereo not drawn)
inactive: viability, T/C (compound 0.0316 µM) 98.9% [middle of 5 runs] | viability, T/C (compound 0.1 µM) 92.1% [middle of 5 runs] | viability, T/C (compound 0.316 µM) 63% [middle of 5 runs] | viability, T/C (compound 1 µM) 45% [middle of 5 runs] | viability, T/C (compound 3.16 µM) 37.6% [middle of 5 runs] | viability, T/C (compound 10 µM) 34.2% [middle of 5 runs]
692 nM [middle of 5 runs]: IC50 (curve of compound)
